# Measured values as given in PMC9489211, “Regulation of pulmonary surfactant by the adhesion GPCR GPR116/ADGRF5 requires a tethered agonist-mediated activation mechanism” (eLife, 2022).
# Where a SMILES comes first, the peptide text is derived from it. Where no end group is shown, it is not given here. [ ]: non-standard residue; d: D form. Nle = CCCC[C@H](N)C(=O)O
# How the values were obtained:
# [1] = target: T1, full-length mGPR116 (HEK293 clone 3C) (Mus musculus, UniProt G5E8Q8); experiment: Calcium transient assay, full-length mGPR116 stably expressed in HEK293 (clone 3C); format: cell-based; details: calcium transient assay, HEK293 clone 3C, Fig 3F
# T1 construct: expressed in transfected cells
# T1 sequence (G5E8Q8 22-1348): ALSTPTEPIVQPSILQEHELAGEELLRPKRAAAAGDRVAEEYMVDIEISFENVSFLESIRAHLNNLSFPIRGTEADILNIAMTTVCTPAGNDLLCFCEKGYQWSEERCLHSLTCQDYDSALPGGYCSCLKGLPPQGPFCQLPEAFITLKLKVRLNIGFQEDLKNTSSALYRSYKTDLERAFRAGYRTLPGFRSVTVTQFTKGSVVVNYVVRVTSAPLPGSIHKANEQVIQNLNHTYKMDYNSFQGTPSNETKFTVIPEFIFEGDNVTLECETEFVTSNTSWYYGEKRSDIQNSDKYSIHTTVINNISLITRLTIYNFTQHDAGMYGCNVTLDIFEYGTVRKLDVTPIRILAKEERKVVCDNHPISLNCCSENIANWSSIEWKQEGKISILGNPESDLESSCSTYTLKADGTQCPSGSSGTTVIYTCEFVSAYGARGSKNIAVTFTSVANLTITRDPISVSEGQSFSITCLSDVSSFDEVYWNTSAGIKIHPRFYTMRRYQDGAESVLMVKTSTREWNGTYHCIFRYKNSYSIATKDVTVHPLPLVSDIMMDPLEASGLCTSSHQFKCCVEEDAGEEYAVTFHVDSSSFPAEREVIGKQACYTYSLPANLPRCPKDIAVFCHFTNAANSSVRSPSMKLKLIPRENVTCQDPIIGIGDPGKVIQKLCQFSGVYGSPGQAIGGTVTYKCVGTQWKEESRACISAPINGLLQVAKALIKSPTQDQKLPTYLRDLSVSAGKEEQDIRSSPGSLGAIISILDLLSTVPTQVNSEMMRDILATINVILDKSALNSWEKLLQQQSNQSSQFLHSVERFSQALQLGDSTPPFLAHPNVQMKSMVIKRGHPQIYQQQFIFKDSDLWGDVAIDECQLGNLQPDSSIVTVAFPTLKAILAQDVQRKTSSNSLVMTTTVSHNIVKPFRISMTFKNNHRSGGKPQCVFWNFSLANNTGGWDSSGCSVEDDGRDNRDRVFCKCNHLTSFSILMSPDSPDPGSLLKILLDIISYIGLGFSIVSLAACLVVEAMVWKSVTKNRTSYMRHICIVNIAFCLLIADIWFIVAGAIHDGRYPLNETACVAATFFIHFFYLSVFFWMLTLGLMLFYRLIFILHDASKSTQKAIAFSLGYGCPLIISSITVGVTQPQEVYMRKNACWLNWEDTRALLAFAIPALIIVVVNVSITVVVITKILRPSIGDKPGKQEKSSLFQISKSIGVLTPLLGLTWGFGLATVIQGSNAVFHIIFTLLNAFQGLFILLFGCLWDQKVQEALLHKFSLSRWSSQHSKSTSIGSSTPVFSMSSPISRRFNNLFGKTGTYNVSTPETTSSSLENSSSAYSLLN
# Experimental: (§1) For some constructs, stable populations were generated by treating the cells with G418. After complete selection of resistant cells, these were used in assays. Stable HEK293 clones for full-length hGPR116 (clone A6) and mGPR116 (clone 3C) were described earlier ([Brown et al., 2017]).
# (§2) HEK293 cells were seeded in 384-well plates (Greiner, #781946) at 30,000 cells/well. Medium was removed the following day and cells were loaded for 2 hr at 37°C, 5% CO2 with 20 µl Calcium 6 loading buffer (Molecular Devices, Cat# R8191): 1× HBSS (Gibco, Cat# 14065.049) containing 20 mM HEPES (Gibco, Cat#15630) and 2.5 mM probenecid (Sigma, Cat# P8761). Plates were then transferred to a FDSS7000 fluorescence plate reader (HAMAMATSU, Japan) and Ca^2+ responses were measured in real time using a CCD camera with excitation 480 nm/emission 540 nm. Prior to stimulation, baseline measurements were recorded over 5 s (Fmin). For stimulation, 20 µl of test compounds prepared 2× in HBSS containing 20 mM HEPES were dispensed. Fluorescence was read over 1–1.5 min. Maximum fluorescence (Fmax) was determined and normalized to baseline. Data are reported as ∆F/F = (Fmax – Fmin)/Fmin. Adequate response of the endogenous M3R was verified for each transfection, using carbachol at 100 µM and following the same procedure as for the peptide activation.
# (§3) Concentration response curves were analyzed using GraphPad Prism 9.2.0. Potency was determined using a nonlinear regression model with variable slope, and statistical significance was determined using a one-way ANOVA followed by Dunnett’s multiple comparison test or a TTEST for comparison of two data sets (*p<0.05, **p<0.01, ***p<0.001, ****p<0.0001, ns, not significant).
# [2] = tested on: mouse GPR116 CTF (mCTF) single alanine mutants; experiment: IP1 accumulation, mCTF single alanine mutants of the tethered agonist stimulated with exogenous GAP; format: cell-based; details: transiently transfected HEK293, Figure 3E
# Experimental: HEK293 cells were seeded in 12-well plates at a density of 1.5 × 10^5 cells per well and transiently transfected with plasmids expressing wild-type, wild-type mGPR116-FLAG, CTF-FLAG, or alanine mutants of CTF-FLAG. Then, 24 hr post transfection, media were removed and replaced with serum-free Modified Eagles Medium (MEM; Mediatech) containing 1 µCi/ml of 3H-myo-inositol (PerkinElmer Life Sciences). Also, 48 hr […], media were removed and replaced with serum-free media supplemented with 20 mM LiCl for 3 hr. For samples to be stimulated with GAPs, the peptides were added at the appropriate concentration when the media were replaced with that supplemented with LiCl. […] Columns were washed twice with distilled H2O, total inositol phosphates (IP) were eluted with 4.0 ml of 0.1 M formic acid and 1 M ammonium formate, and eluates containing accumulated inositol phosphates were counted in a liquid scintillation counter. Then, 50 μl of neutralized supernatant was counted in a liquid scintillation counter to measure total incorporated 3H-myo-inositol. Data are expressed as accumulated inositol phosphate over total incorporated 3H-myo-inositol. […]
# IP1 accumulation was measured using the manufacturer’s instructions (IP-One, Cisbio 62IPAPEC). […] Plates were read at 665 and 620 nm on an EnVision Xcite Multilabel reader (PerkinElmer, # 2104-0020). […]
# [3] = tested on: mCTFbax Y1158A, R1160A, W1165A, L1166A, T1240A; experiment: Calcium transient assay, alanine scan of ECLs in mCTFbax; format: cell-based, mouse; details: transiently transfected HEK293, Figure 4B
# Experimental: Human and mouse GPR116 full-length constructs (hFL and mFL, respectively) have been described earlier, as well as the mouse CTF constructs (mCTF) with N-terminal mCherry or FLAG ([Brown et al., 2017]). […] Mutants of these constructs have been generated by site-directed mutagenesis using PCR-based techniques.
# as §2
# [4] = target: T2, full-length hGPR116 (HEK293 clone A6) (Homo sapiens, UniProt Q8IZF2); experiment: Calcium transient assay, full-length hGPR116 stably expressed in HEK293 (clone A6); format: cell-based; details: calcium transients, hFL clone A6, Figure 3-figure supplement 2 / Figure 7A
# T2 construct: expressed in transfected cells
# T2 sequence (Q8IZF2 22-1346): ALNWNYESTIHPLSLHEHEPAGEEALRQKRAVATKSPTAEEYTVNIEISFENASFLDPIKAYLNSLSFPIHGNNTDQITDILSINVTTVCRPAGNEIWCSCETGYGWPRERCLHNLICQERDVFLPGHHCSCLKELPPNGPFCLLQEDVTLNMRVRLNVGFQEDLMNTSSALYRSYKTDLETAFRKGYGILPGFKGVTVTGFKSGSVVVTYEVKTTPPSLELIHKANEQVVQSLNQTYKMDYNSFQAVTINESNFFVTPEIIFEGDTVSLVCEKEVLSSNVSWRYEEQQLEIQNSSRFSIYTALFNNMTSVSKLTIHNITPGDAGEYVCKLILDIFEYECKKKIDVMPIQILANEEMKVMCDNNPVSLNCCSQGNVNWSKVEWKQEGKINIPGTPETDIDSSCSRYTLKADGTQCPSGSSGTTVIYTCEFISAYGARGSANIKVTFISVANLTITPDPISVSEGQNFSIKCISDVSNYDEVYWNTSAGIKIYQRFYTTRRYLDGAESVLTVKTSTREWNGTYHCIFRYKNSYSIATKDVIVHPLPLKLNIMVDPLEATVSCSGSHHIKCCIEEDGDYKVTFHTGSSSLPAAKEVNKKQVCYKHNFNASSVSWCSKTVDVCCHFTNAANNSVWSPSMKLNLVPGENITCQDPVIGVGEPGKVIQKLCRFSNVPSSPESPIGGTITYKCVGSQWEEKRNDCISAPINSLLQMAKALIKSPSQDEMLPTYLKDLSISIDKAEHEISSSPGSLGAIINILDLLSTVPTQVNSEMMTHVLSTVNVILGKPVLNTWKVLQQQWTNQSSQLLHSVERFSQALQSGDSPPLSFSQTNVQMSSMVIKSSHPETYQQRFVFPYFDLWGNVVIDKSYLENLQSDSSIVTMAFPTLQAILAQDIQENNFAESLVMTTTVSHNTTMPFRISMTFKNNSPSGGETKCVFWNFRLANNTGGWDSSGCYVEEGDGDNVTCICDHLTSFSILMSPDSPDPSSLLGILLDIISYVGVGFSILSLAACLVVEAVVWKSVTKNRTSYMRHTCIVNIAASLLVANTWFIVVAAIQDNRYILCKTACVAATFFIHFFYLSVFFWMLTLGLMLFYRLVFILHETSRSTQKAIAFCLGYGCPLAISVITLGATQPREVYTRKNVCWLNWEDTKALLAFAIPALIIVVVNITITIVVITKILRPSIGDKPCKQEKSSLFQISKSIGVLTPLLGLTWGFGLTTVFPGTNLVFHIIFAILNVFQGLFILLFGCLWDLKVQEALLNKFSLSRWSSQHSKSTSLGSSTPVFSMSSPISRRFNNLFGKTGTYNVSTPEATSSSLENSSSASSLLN
# Experimental: as §1, §2, §3
# hCTFbax G1011K = target: T3, hCTFbax G1011K (Homo sapiens, UniProt Q8IZF2, G1009K); experiment: Calcium transient assay, hCTFbax G1011K; format: cell-based; details: calcium transients, Figure 7C
# T3 construct: tethered peptide (993 - 1008); expressed in transfected cells
# T3 sequence (Q8IZF2 997-1346 G1009K): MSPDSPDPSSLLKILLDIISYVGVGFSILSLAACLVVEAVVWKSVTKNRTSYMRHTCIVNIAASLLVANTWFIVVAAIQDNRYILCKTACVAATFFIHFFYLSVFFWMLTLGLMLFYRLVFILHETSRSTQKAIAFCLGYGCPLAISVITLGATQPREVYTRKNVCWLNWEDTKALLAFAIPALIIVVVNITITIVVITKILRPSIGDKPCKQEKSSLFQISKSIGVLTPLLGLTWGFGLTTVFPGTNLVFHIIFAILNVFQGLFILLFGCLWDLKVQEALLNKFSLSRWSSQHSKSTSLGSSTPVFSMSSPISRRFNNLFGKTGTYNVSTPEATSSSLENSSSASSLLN
# Experimental: The hCTFbax construct was generated independently of the mCTFbax, using a strategy (Nt deletion) based on emerging knowledge and appropriate for the planned studies, although no difference in functionality is expected between the two approaches. The hCTFbax mBS chimera was derived from this construct by gene synthesis. Other mutants of the human GPR116 CTF or full-length constructs were generated by site-directed mutagenesis using PCR-based techniques.
# HEK293 cells were seeded in 384-well plates (Greiner, #781946) at 30,000 cells/well. […] Plates were then transferred to a FDSS7000 fluorescence plate reader (HAMAMATSU, Japan) and Ca^2+ responses were measured in real time using a CCD camera with excitation 480 nm/emission 540 nm. Prior to stimulation, baseline measurements were recorded over 5 s (Fmin). […] Fluorescence was read over 1–1.5 min. Maximum fluorescence (Fmax) was determined and normalized to baseline. […]
# as §3
activation of the human full-length receptor (in words) [4],response of hCTFbax G1011K (in words) (hCTFbax G1011K),Compound,EC50 (uM) n=1 ([1]; independent experiment n=1 (mean of quadruplicate)) [µM],EC50 (uM) n=2 ([1]; independent experiment n=2 (mean of quadruplicate)) [µM],EC50 (uM) n=3 ([1]; independent experiment n=3 (mean of quadruplicate)) [µM],"activation of mCTF single alanine mutants, IP1 accumulation (in words) [2]",activation of mCTFbax ECL alanine mutants (in words) [3]
,,TSFSILMSPDSPDP [GAP14],29.9,26.3,46.4,strongly activated the mutant receptors,unresponsive to GAP14-mediated activation
little to no effect,did not robustly respond,CCCC[C@H](NC(=O)[C@H](CC(C)C)NC(=O)[C@@H](NC(=O)[C@H](CO)NC(=O)[C@H](Cc1ccccc1)NC(=O)[C@H](CO)NC(=O)[C@@H]1CCCN1)[C@@H](C)CC)C(=O)N[C@@H](CO)C(=O)N1CCC[C@H]1C(=O)N[C@@H](CC(=O)O)C(=O)O [GAP10-Pro1] (H-PSFSIL[Nle]SPD-OH; N-terminus and C-terminus assumed),,,,,
